Source: PMC9606572, “Development of an innovative in vivo model of PJI treated with DAIR” (Frontiers in Medicine, 2022)
≈ marks a conversion by molar mass, not a printed value.

How the values were obtained:
[1] = Renal tolerance of vancomycin regimen (serum creatinine); assay type: in vivo, New Zealand White rabbits
Method: Creatinine serum concentrations were measured in group A animals using a Fuji Dri-Chem analyzer (Fujifilm Corporation, Tokyo, Japan) with CRE-PIII slides, as per the manufacturer’s instructions.

[2] = tested on: MRSA strain ATCC 33591; assay type: in vivo, New Zealand White rabbits; details: surgical debridement at day 7 followed by 50 mg/kg IV vancomycin twice a day for 7 days, N = 5
From the text: Following general anesthesia, the animals were installed in a Class II biosafety cabinet. The operated leg was disinfected twice with 2% chlorhexidine gluconate alcohol solution (Qualiphar, Bornem, Belgium) and the leg was sterile draped. The joint was approached through a medial parapatellar incision. The medial meniscus was resected and 5 mm of the medial tibial plateau was removed using a high-speed burr. The cut height was confirmed using a spacer block. The bone surface was then further prepared using a custom tibial punch. After irrigation of the joint space with sterile saline, the final implants were impacted. The joint was then further irrigated with sterile saline. The joint capsule, subcutaneous tissues, and skin were closed separately with running sutures using a 3/0 polyester thread. The joints of groups B and C animals were inoculated by intra-articular injection of 100 μl of a 6.5 log10 CFU/ml MRSA suspension after the closure of the subcutaneous tissues. […] The wounds were then covered using an antiseptic spray and dressed.
Animals of groups C were operated on 1 week after the initial surgery. Following anesthesia, the operated leg was disinfected twice with 2% chlorhexidine gluconate alcohol solution and the leg was draped. The initial approach was re-used. Pus samples were collected immediately after the capsule was breached and stored on ice until analyzed. […]

[3] = tested on: Methicillin-Resistant Staphylococcus aureus strain ATCC 33591; details: MRSA ATCC 33591; determined previously; cited from earlier work
Method: The Methicillin-Resistant Staphylococcus aureus strain ATCC 33591, previously used in our laboratory for biofilms models, was used. […] Bacteria were grown overnight on tryptic soy agar (TSA) plates from frozen stock. Some colonies were then suspended in sterile PBS, adjusted to an OD620 nm of 0.5 (∼8 log10 CFU), and diluted 1:10 in PBS. The bacterial suspension was stored at 4°C until inoculation (1.5–2 h). Serial dilutions of the bacterial inoculum were plated on TSA to confirm the bacterial inoculum.

[4] = Vancomycin serum pharmacokinetics and therapeutic monitoring in rabbits; details: 50 mg/kg IV every 12 h, Roche VANC3 assay

CN[C@H](CC(C)C)C(=O)N[C@H]1C(=O)N[C@@H](CC(N)=O)C(=O)N[C@H]2C(=O)N[C@H]3C(=O)N[C@H](C(=O)N[C@H](C(=O)O)c4cc(O)cc(O)c4-c4cc3ccc4O)[C@H](O)c3ccc(c(Cl)c3)Oc3cc2cc(c3O[C@@H]2O[C@H](CO)[C@@H](O)[C@H](O)[C@H]2O[C@H]2C[C@](C)(N)[C@H](O)[C@H](C)O2)Oc2ccc(cc2Cl)[C@H]1O [vancomycin, Vancomycin]
renal toxicity ([1]; NZW rabbits, 50 mg/kg IV vancomycin twice a day): No renal toxicity was observed | serum creatinine concentrations throughout the experiment ([1]; group A NZW rabbits, 50 mg/kg IV vancomycin twice a day for 7 days, Fuji Dri-Chem analyzer): stable | bacterial counts in all samples (bone, pus, implant) except the joint capsule, group C versus group B ([2]; 5.5 log10 CFU MRSA inoculum, p < 0.0001): significantly reduced | mean difference in CFU counts in capsule samples, group C versus group B ([2]; not statistically significant, p = 0.35): 0.74 log10 CFU/g | MBEC [3]: > 1024 µg/mL | MIC [3]: 1 µg/mL (≈ 0.69 µM) | vancomycin serum concentration 12 h after the injections ([4]; group A NZW rabbits): ~0 µg/mL | AUC0–12 h following the first vancomycin injection ([4]; group A non-infected NZW rabbits, 1st injection, trapezoid rule, mean, N = 5, SD 15.79): 213.0 µg·h/mL
